{"source": "patent US20230277669A1", "about": "“USES OF UROLITHINS” (Amazentis SA, priority 2022, published 2023)", "test_system": "TIL CD8+ population", "test": "Flow cytometry analysis of TIL of UA-fed mice with APTK tumors", "type": "in vivo, C57BL/6 mice", "procedure": "(FIG. 2A) Scheme of CD3+ T-cell activation and analysis for various timepoints. (FIG. 2B) Reduced effector molecule expression on in vitro treated cells (n=3 pooled from three independent experiments). Isolated T-cells were stimulated for 48 h at the presence of UA or DMSO in the indicated doses. Data are mean ± SD, *p < 0.05 by two-sided t-test. (FIG. 2C) Reduced effector molecule expression on in vitro treated cells (n=3 pooled from three independent experiments). Isolated T-cells were stimulated for 48 h at the presence of UA or DMSO in the indicated doses. Data are mean ± SD, *p < 0.05 by two-sided t-test. (FIG. 2D) Quantification of T memory stem cells (TSCM: CD44^-CD62L^+Sca1^hi) after 24 h, 48 h and 96 h post stimulation with aCD3/aCD28 stimulation beads as indicated in (A) (n=4 pooled from four independent experiments). Data are mean ± SD, statistical analysis was performed via two-sided t-test (*p < 0.05; **p < 0.01; n.s. not significant). (FIG. 2E) Mitochondrial membrane potential within naïve CD62L^+CD44^-CD8^+ T cells, with TMRM^lo representing cells with low mitochondrial membrane potential. Cells were stimulated for 48 h as depicted in (A). Data are mean ± SD, n=4; ***p <0.001 by two-sided t-test. Experiment was repeated twice in independent experiments. (FIG. 2F) Representative histogram and quantification of memory marker CD95 expression in CD62L^+CD44^-CD8^+ cells, 48 hours after in vitro stimulation. Data are mean ± SD; n=5; ****p < 0.0001 by two-sided t-test. Data depicts one of two independent experiments. (FIG. 2G) Analysis of TIL of UA-fed mice, treated as depicted in FIG. 1J. Percentage of TSCM within CD8+ (G; n=7), as well as TCF1 (H; n=7) PD1^hi,Tim3^hi and CTLA4hi (I-K, all n=6) in the TIL CD8+ population are shown. Data are mean ± SD, statistical analysis was performed via two-sided t-test (*p < 0.05; **p < 0.01;, ***p <0.001.). Data depicts one of two independent experiments. (FIG. 2H) The same experiment as FIG. 2G with TCF1 (n=7) in the TIL CD8+ population. (FIG. 2I) The same experiment as FIG. 2G with PD1^hi (n=6) in the TIL CD8+ population. (FIG. 2J) The same experiment as FIG. 2G with Tim3^hi (n=6) in the TIL CD8+ population. (FIG. 2K) The same experiment as FIG. 2G with CTLA4hi (n=6) in the TIL CD8+ population. (FIG. 2L) Flow cytometry readout of ex vivo cytokine release of previously isolated TIL upon re-stimulation with PMA/ionomycin. Data are mean ± SD with n=7 per group. Statistical analysis was performed by two-sided t-test (**p < 0.01). One out of two independent experiments are shown. (FIG. 2M) Flow cytometry readout of ex vivo cytokine release of previously isolated TIL upon re-stimulation with PMA/ionomycin. Data are mean ± SD with n=7 per group. Statistical analysis was performed by two-sided t-test (**p < 0.01). One out of two independent experiments are shown.\n(FIG. 5L) UA induces PGC-1α expression in stimulated CD8+ cells. PGC-1α MFI at 48 h upon stimulation, as assessed by intracellular staining, is shown (n=3). One of two independent experiments are shown. Data are mean ± SD, statistical analysis was performed by two-sided t-test (p**<0.01). (FIG. 5M) Mitochondrial content of TIL CD8+ cells harvested from APTK-carrying mice, fed UA or control diet as depicted in FIG. 1J. Assessed by Mitotracker Red staining. Data are mean ± SD, *p < 0.05 by two-sided t-test. (FIG. 5N) Mitophagy and subsequent PGAM5 release drive PGC-1α upregulation. PGC-1α expression of CD8+ cells derived from Pink1^-/- KO mice upon 48 h stimulation in vitro in the presence of UA or DMSO control (n=4). Data are mean ± SD, statistical analysis was performed by two-sided t-test. Depicts one of two independent experiments. (FIG. 5O) Mitophagy and subsequent PGAM5 release drive PGC-1 α upregulation. PGC-1α expression of CD8+ cells derived from PGAM5^-^/- mice upon 48 h stimulation in vitro in the presence of UA or DMSO control (n=4). Data are mean ± SD, statistical analysis was performed by two-sided t-test. […]", "key": {"[1]": {"details": "ex vivo restimulation with PMA/ionomycin"}}, "data": [{"smiles": "O=c1oc2cc(O)ccc2c2ccc(O)cc12", "note": "[Urolithin A]", "values": [{"measurement": "mitochondrial content in TIL of APTK tumors", "setting": "UA or control diet", "result": "increased mitochondrial content"}, {"measurement": "CD8+CD44loCD62LhiSca1hi T cells (TSCM) in APTK-induced tumors", "setting": "UA-fed mice", "result": "marked increase"}, {"measurement": "TCF1 expression in tumor infiltrating CD8+ T cells", "setting": "UA-fed mice", "result": "increased expression"}, {"measurement": "dendritic cells (DCs), TAMs, MDSC subsets in TME", "setting": "UA-fed mice", "result": "no change"}, {"measurement": "exhaustion marker CTLA-4 in CD8+ T cells", "setting": "UA-fed mice", "result": "reduction"}, {"measurement": "exhaustion marker PD-1 in CD8+ T cells", "setting": "UA-fed mice", "result": "reduction"}, {"measurement": "exhaustion marker Tim3 in CD8+ T cells", "setting": "UA-fed mice", "result": "reduction"}, {"measurement": "IFNg induction in tumor infiltrating CD8+ T cells", "setting": "[1]", "result": "stronger induction"}, {"measurement": "TNFa induction in tumor infiltrating CD8+ T cells", "setting": "[1]", "result": "stronger induction"}]}]}
